Active and inactive are the calls of the source. The rule behind the calls is not given here.
Legend:
Cal27CisR [1] = assay: Induction of DNA damage in human Cal27CisR cells assessed as increase in gamma H2AX phosphorylation pretreated for 24 hrs followed by cisplatin treatment and further incubated for 18 hrs measured by Western blot analysis; assay type: functional, cell-based; settings: time 42.0 hrs
[2] = target: T1, Histone deacetylase (Homo sapiens) (UniProt Q13547+O15379+Q9UBN7+Q92769+Q9UQL6+Q8WUI4+Q9BY41+Q96DB2+P56524+Q9UKV0+Q969S8); assay: Inhibition of HDAC in human Cal27CisR cells assessed as combination index at 0.5 uM measured in presence of 50 uM cDDP by MTT-based Chou-Talalay method; assay type: cell-based
Histone deacetylase 8 = target: T2, Histone deacetylase 8 (Homo sapiens, UniProt Q9BY41); assay: Inhibition of recombinant human C-terminal His-fusion tagged/N-terminal Strep2 tagged HDAC8 (1 to 377 residues) expressed in insect cells using Boc-Lys(TFA)-AMC as substrate preincubated for 5 mins followed by substrate addition measured after 90 mins by fluorimetry
T2 sequence (Q9BY41 whole entry): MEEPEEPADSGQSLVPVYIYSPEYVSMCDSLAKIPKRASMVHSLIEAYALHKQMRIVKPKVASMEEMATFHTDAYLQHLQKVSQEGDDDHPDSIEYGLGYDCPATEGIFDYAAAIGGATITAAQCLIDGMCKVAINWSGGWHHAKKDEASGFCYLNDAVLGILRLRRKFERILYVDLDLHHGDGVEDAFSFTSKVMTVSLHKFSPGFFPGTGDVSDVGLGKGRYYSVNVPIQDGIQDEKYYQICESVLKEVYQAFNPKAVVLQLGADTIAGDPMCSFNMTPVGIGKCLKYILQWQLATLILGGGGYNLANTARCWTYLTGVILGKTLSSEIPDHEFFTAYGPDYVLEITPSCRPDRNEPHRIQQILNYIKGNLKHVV

[3] = target: T3, Protein deacetylase HDAC6 (Homo sapiens) (UniProt Q9UBN7); assay: Inhibition of HDAC6 in human CAL-27 cells assessed as accumulation of acetylated alpha-tubulin at 5 uM for 24 hrs by Western blot analysis; assay type: cell-based
T3 sequence (whole entry): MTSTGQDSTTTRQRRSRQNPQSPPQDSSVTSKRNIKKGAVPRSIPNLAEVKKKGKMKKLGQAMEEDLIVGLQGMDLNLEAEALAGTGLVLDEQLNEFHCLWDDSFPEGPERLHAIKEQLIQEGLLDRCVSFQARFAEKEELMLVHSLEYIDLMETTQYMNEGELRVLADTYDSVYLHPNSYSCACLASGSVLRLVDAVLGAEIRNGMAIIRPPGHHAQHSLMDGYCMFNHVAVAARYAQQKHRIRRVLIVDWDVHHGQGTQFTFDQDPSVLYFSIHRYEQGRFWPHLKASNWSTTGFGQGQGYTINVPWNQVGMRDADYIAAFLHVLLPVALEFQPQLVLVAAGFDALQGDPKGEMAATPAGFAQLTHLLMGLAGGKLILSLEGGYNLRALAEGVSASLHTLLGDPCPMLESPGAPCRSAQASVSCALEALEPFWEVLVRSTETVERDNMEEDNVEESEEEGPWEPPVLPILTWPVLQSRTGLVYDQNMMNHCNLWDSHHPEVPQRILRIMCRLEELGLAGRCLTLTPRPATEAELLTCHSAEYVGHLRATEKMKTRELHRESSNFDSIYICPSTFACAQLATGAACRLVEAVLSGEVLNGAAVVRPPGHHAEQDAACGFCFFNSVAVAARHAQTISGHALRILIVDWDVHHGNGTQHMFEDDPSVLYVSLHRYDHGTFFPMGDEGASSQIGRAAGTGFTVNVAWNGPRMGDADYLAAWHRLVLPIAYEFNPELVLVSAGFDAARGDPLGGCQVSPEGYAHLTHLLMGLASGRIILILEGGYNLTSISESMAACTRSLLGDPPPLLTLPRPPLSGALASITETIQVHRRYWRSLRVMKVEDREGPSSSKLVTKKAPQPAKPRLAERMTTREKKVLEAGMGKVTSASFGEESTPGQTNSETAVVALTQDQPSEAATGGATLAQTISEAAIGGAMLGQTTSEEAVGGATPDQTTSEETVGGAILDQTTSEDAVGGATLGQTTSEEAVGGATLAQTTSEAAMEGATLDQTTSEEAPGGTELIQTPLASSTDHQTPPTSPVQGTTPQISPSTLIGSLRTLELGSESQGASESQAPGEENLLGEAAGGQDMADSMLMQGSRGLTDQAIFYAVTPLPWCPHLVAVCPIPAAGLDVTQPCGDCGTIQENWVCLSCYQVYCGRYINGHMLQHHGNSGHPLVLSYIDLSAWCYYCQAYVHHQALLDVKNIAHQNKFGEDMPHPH

CAL-27 [4] = assay: Induction of DNA damage in human CAL-27 cells assessed as increase in gamma H2AX phosphorylation pretreated for 24 hrs followed by cisplatin treatment and further incubated for 18 hrs measured by Western blot analysis; assay type: functional, cell-based; settings: time 42.0 hrs
CAL-27 [5] = assay: Induction of DNA damage in human CAL-27 cells assessed as upregulation of gamma H2AX in presence cisplatin measured by Western blot analysis; assay type: functional, cell-based
Cal27CisR [6] = assay: Induction of DNA damage human Cal27CisR cells assessed as upregulation of gamma H2AX in presence cisplatin measured by Western blot analysis; assay type: functional
Histone deacetylase 2 = Histone deacetylase 2 (Homo sapiens, UniProt Q92769); assay: Inhibition of recombinant human full length C-terminal GST-fusion tagged HDAC2 expressed in baculovirus infected insect cells using Boc-Lys(Ac)-AMC as substrate preincubated for 5 mins followed by substrate addition measured after 90 mins by fluorimetry; assay type: cell-based
[7] = target: T4, Protein deacetylase HDAC6 (Homo sapiens, UniProt Q9UBN7); assay: Inhibition of recombinant human N-terminal GST-tagged HDAC6 (1 to 1215 residues) expressed in baculovirus infected insect cells using Boc-Lys(Ac)-AMC as substrate preincubated for 5 mins followed by substrate addition measured after 90 mins by fluorimetry
T4 sequence (Q9UBN7 whole entry): T3 sequence (whole entry)

Histone deacetylase 4 = Histone deacetylase 4 (Homo sapiens, UniProt P56524); assay: Inhibition of recombinant human N-terminal GST-fusion tagged/C-terminal GST-tagged HDAC4 (627 to 1084 residues) expressed in baculovirus infected insect cells using Boc-Lys(TFA)-AMC as substrate preincubated for 5 mins followed by substrate addition measured after 90 mins by fluorimetry
Histone deacetylase [8] = assay: Inhibition of HDAC in human A2780 cells using Boc-Lys (acetyl)-AMC as substrate preincubated for 18 hrs followed by susbtrate addition and measured after 3 hrs by fluorescence microplate reader assay; assay type: cell-based
Histone deacetylase [9] = assay: Inhibition of HDAC in human CAL-27 cells using Boc-Lys (acetyl)-AMC as substrate preincubated for 18 hrs followed by susbtrate addition and measured after 3 hrs by fluorescence microplate reader assay; assay type: cell-based
[10] = target: T1, Histone deacetylase (Homo sapiens); assay: Inhibition of HDAC in human Cal27CisR cells assessed as combination index at 0.5 uM measured in presence of 10 uM cDDP by MTT-based Chou-Talalay method; assay type: cell-based
[11] = target: Class 1 histone deacetylase (Homo sapiens) (UniProt Q13547+O15379+Q92769+Q9BY41); assay: Inhibition of class-1 HDAC in human CAL-27 cells assessed as induction of histone H-3 acetylation at 5 uM for 24 hrs by Western blot analysis; assay type: cell-based

Histone deacetylase 4, sequence (P56524 whole entry, the tested form may be a part): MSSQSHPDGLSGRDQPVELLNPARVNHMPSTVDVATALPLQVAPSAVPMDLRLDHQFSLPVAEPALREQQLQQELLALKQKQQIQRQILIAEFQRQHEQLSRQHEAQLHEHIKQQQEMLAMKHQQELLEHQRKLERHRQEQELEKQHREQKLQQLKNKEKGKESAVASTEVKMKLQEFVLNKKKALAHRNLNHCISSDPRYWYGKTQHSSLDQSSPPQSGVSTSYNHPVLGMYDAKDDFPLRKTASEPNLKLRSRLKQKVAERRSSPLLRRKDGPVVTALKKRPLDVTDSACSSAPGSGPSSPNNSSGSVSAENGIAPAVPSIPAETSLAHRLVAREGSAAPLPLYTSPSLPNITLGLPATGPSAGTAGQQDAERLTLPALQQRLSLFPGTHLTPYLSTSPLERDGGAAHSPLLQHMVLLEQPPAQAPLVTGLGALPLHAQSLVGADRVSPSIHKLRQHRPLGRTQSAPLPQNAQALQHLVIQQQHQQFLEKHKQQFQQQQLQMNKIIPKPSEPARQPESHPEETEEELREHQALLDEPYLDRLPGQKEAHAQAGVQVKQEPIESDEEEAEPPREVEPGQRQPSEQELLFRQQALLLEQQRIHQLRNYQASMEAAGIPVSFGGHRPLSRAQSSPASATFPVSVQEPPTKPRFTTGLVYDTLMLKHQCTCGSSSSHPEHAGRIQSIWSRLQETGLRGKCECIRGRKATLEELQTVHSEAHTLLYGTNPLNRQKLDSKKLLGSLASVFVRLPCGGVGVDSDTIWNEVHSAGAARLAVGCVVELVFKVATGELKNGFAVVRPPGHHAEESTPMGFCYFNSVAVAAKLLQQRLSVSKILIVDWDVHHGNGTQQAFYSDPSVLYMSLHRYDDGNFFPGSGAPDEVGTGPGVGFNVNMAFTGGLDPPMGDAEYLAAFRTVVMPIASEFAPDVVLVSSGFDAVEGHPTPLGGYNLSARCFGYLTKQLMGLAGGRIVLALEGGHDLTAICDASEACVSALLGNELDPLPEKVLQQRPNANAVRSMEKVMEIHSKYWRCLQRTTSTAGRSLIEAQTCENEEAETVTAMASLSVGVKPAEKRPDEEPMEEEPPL
Histone deacetylase 2, sequence (Q92769 whole entry, the tested form may be a part): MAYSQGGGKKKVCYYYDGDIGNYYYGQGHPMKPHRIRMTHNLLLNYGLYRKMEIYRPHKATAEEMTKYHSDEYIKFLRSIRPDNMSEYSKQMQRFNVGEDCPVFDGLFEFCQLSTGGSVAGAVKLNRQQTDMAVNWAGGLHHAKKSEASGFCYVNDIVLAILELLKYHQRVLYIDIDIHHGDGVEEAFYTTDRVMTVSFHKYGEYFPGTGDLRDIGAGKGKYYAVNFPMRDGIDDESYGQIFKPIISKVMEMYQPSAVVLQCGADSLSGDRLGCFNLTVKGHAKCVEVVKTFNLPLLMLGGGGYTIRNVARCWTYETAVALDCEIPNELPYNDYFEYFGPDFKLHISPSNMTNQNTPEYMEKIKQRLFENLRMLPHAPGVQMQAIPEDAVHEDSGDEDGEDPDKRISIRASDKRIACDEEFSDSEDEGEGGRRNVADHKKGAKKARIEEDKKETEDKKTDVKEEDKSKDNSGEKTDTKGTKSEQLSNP

SMILES | Activity (Cal27CisR [1]) | CI [2] | IC50 (Histone deacetylase 8) [nM] | inhibition [3] | Activity (CAL-27 [4]) | Activity (CAL-27 [5]) | Activity (Cal27CisR [6]) | IC50 (Histone deacetylase 2) [nM] | IC50 [7] [nM] | IC50 (Histone deacetylase 4) [nM] | IC50 (Histone deacetylase [8]) [nM] | IC50 (Histone deacetylase [9]) [nM] | CI [10] | Activity [11]
O=C(CCCCCONC(=O)c1ccc2ccccc2n1)NO | Active | 0.5 | 9780 | Active | Active | Active | Active | 92 | 25 | > 100000 | 480 | 180 | 0.13 | Active
O=C(CCCCCONC(=O)c1cc2ccccc2[nH]1)NO | Active | 0.47 | 10300 | Active | Active | Active | Active | 57 | 13 | 55700 | 670 | 120 | 0.27 | Active
O=C(CCCCCONC(=O)c1nccc2ccccc12)NO | Active | 0.97 | 12400 | Active | Active | Active | Active | 759 | 173 | > 100000 | 250 | 1500 | 1.11 | Active

— ChEMBL document CHEMBL4823243, “Synergistic induction of apoptosis in resistant head and neck carcinoma and leukemia by alkoxyamide-based histone deacetylase inhibitors” (Eur J Med Chem, 2021)
